System: spleen lymphocytes stimulated with Ehrlich ascites carcinoma cells
Assay: Cancer cell-specific proliferation of spleen lymphocytes from treated tumor-bearing mice
Type: in vivo, ddY mice
Details: for 3H-thymidine uptake: 10 mg/kg intraperitoneal
Procedure: ddY mice (female, 7 weeks old) were purchased from Japan SLC and pre-bred 1 week before using in experiments.
1×10^6 Ehrlich ascites carcinoma cells were intraperitoneally inoculated to each mouse. 10 mg/kg of cyclopentene, 30 mg/kg of GM or 10 mg/kg of dipropionylcyclopentene was intraperitoneally administered to the mouse on the day after the inoculation. Saline was administered to a control mouse.
A spleen was taken out from the mouse 10 days after the inoculation with cancer cells, finely minced and suspended in RPMI-1640 medium (Gibco) containing 10% FCS (HyClone) to obtain a single cell suspension. Adhesive cells in the cell suspension adhered to a plastic Petri dish were removed and non-adhesive cells were used as spleen lymphocytes.
The spleen lymphocytes were suspended in RPMI-1640 medium containing 10% FCS at a concentration of 2×10^6/ml. 100 μl/well of the suspension was seeded into a microtiter plate.
Stimulated cells were prepared as follows. Mitomycin C (Kyowa Hakko Kogyo) was added to a concentration of 50 μg/ml to Ehrlich ascites carcinoma cells suspended in RPMI-1640 medium at a concentration of 2×10^6 cells/ml. The cells were treated at 37° C. for 30 minutes, washed twice and then suspended in RPMI-1640 medium containing 10% FCS to prepare stimulated cells at a concentration of 2×10^6 cells/ml. 100 μl of the thus prepared stimulated cells was overlaid onto each well of the plate into which 100 μl/well of the spleen lymphocytes had been added. The plate was incubated at 37° C. for 5 days in a 5% CO2 incubator. 37 kBq of ^3H-thymidine (Daiichi Pure Chemicals) was added to the well to pulse-label the cells on the day before the completion of the cultivation. After cultivation, the cells were harvested on a glass filter to measure the radioactivity.

## CCC(=O)OC1C=CC(=O)C1OC(=O)CC (stereo not drawn)
No stimulation with cancer cell
  3H-thymidine uptake: 9250 CPM
Stimulation with cancer cell
  3H-thymidine uptake: 20748 CPM
Mice administered intraperitoneally
  Growth of spleen lymphocytes on stimulation with cancer cells (statement): significantly enhanced

— patent publication US6548543B1, “Remedies or preventives containing cyclopentenone compounds as the active ingredient” (Takara Shuzo Co., Ltd., priority 1998, dated 2003)
